Experimental data: patent publication US9073855B2, “BCL-2 selective apoptosis-inducing agents for the treatment of cancer and immune diseases” (AbbVie Inc., priority 2008, dated 2015)

How the values were obtained:
GST-Bcl-XL = GST-Bcl-XL (Homo sapiens, UniProt Q07817); test: TR-FRET binding assay, GST-Bcl-XL with F-Bak peptide probe; conditions: TR-FRET Binding Affinity
In short: (§1)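 Compounds were serially diluted in DMSO from a 50 μM starting solution (2× the starting concentration; 10% DMSO). Plates were incubated for 3 h at room temperature, and TR-FRET was read with 340/35 nm excitation and emission at 520/525 nm (F-Bak) and 495/510 nm (Tb antibody). Ki values were calculated using Wang's competitive-binding equation.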

GST-Bcl-2 = GST-Bcl-2 (Homo sapiens, UniProt P10415); test: TR-FRET binding assay, GST-Bcl-2 with F-Bak peptide probe; conditions: for Ki: TR-FRET Binding Affinity
In short: as §1

[1] = TR-FRET, Bcl-XL Ki divided by Bcl-2 Ki
[2] = GST-Bcl-XL, F-Bak peptide probe

Chain of GST-Bcl-XL (Q07817 whole entry): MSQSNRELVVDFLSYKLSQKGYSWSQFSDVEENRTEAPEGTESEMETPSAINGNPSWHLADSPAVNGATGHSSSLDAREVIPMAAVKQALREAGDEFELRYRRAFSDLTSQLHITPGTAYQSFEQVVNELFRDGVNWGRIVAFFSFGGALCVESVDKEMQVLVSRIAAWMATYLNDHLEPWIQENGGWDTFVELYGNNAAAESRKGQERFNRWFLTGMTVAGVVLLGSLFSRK
Chain of GST-Bcl-2 (P10415 whole entry): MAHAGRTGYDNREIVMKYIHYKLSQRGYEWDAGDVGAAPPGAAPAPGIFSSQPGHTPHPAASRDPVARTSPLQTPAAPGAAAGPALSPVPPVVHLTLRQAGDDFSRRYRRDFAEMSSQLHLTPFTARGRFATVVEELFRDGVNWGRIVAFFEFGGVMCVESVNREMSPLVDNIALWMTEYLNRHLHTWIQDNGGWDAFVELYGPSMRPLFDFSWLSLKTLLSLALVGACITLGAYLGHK

Compound	Ki (GST-Bcl-XL) [nM]	Ki (GST-Bcl-2) [nM]	Binding selectivity ratio (Bcl-XL Ki/Bcl-2 Ki) (GST-Bcl-2; [1])	Ki (GST-Bcl-XL; [2]) [nM]	Ki (GST-Bcl-2; GST-Bcl-2, F-Bak peptide probe) [nM]	Binding selectivity ratio (Bcl-XL Ki/Bcl-2 Ki) (GST-Bcl-2; ratio of TR-FRET Ki values, Bcl-XL over Bcl-2)
CC1(C)CCC(CN2CCN(c3ccc(C(=O)NS(=O)(=O)c4cnc(OCC5CCC(F)(F)CC5)c(Cl)c4)c(Oc4cccc5[nH]cnc45)c3)CC2)=C(c2ccc(Cl)cc2)C1 [Example 463, 2-(1H-benzimidazol-4-yloxy)-N-({5-chloro-6-[(4,4-difluorocyclohexyl)methoxy]pyridin-3-yl}sulfonyl)-4-(4-{[2-(4-chlorophenyl)-4,4-dimethylcyclohex-1-en-1-yl]methyl}piperazin-1-yl)benzamide]	43.9	0.007	6042.9	–	–	–
CN(C)CCCNc1ccc(S(=O)(=O)NC(=O)c2ccc(N3CCN(CC4=C(c5ccc(Cl)cc5)CC(C)(C)CC4)CC3)cc2Oc2ccc3[nH]ccc3c2)cc1S(=O)(=O)C(F)(F)Cl [Example 67, N-[(3-{[chloro(difluoro)methyl]sulfonyl}-4-{[3-(dimethylamino)propyl]amino}phenyl)sulfonyl]-4-(4-{[2-(4-chlorophenyl)-4,4-dimethylcyclohex-1-en-1-yl]methyl}piperazin-1-yl)-2-(1H-indol-5-yloxy)benzamide]	–	–	–	> 660	289	–
CC1(C)CCC(CN2CCN(c3ccc(C(=O)NS(=O)(=O)c4cnc(OCCn5ccnc5)c(Cl)c4)c(Oc4cccc5[nH]ncc45)c3)CC2)=C(c2ccc(Cl)cc2)C1 [Example 485, N-({5-chloro-6-[2-(1H-imidazol-1-yl)ethoxy]pyridin-3-yl}sulfonyl)-4-(4-{[2-(4-chlorophenyl)-4,4-dimethylcyclohex-1-en-1-yl]methyl}piperazin-1-yl)-2-(1H-indazol-4-yloxy)benzamide]	54.2	0.167	324.0	–	–	–
CC1(C)CCC(CN2CCN(c3ccc(C(=O)NS(=O)(=O)c4cnc(OC[C@@H]5CN(C6CC6)CCO5)c(Cl)c4)c(Oc4cccc5[nH]ncc45)c3)CC2)=C(c2ccc(Cl)cc2)C1 [Example 504, N-[(5-chloro-6-{[(2S)-4-cyclopropylmorpholin-2-yl]methoxy}pyridin-3-yl)sulfonyl]-4-(4-{[2-(4-chlorophenyl)-4,4-dimethylcyclohex-1-en-1-yl]methyl}piperazin-1-yl)-2-(1H-indazol-4-yloxy)benzamide]	5.5	< 0.01	>549.9	–	–	–
CC[C@]1(O)CC[C@@H](COc2ncc(S(=O)(=O)NC(=O)c3ccc(N4CCN(CC5=C(c6ccc(Cl)cc6)CC(C)(C)CC5)CC4)cc3Oc3cccc4[nH]ncc34)cc2Cl)CC1 [Example 509, N-({5-chloro-6-[(cis-4-ethyl-4-hydroxycyclohexyl)methoxy]pyridin-3-yl}sulfonyl)-4-(4-{[2-(4-chlorophenyl)-4,4-dimethylcyclohex-1-en-1-yl]methyl}piperazin-1-yl)-2-(1H-indazol-4-yloxy)benzamide]	229	6.3	36.4	–	–	–
CC1(C)CCC(CN2CCN(c3ccc(C(=O)NS(=O)(=O)c4ccc(NC5CCN(CC(F)(F)F)CC5)c([N+](=O)[O-])c4)c(Oc4cccc5[nH]ccc45)c3)CC2)=C(c2ccc(Cl)cc2)C1 [Example 108, 4-(4-{[2-(4-chlorophenyl)-4,4-dimethylcyclohex-1-en-1-yl]methyl}piperazin-1-yl)-2-(1H-indol-4-yloxy)-N-[(3-nitro-4-{[1-(2,2,2-trifluoroethyl)piperidin-4-yl]amino}phenyl)sulfonyl]benzamide]	–	–	–	59.6	2.34	–
CC1(C)CCC(CN2CCN(c3ccc(C(=O)NS(=O)(=O)c4cnc(OCC5(F)CCN(C6COC6)CC5)c(Cl)c4)c(Oc4cccc5[nH]ncc45)c3)CC2)=C(c2ccc(Cl)cc2)C1 [Example 528, N-[(5-chloro-6-{[4-fluoro-1-(oxetan-3-yl)piperidin-4-yl]methoxy}pyridin-3-yl)sulfonyl]-4-(4-{[2-(4-chlorophenyl)-4,4-dimethylcyclohex-1-en-1-yl]methyl}piperazin-1-yl)-2-(1H-indazol-4-yloxy)benzamide]	3.67	< 0.01	>366.9	–	–	–
CC1(C)CCC(CN2CCN(c3ccc(C(=O)NS(=O)(=O)c4cnc(OC[C@H]5CC[C@H](C#N)CC5)c(Cl)c4)c(Oc4cccc5[nH]ncc45)c3)CC2)=C(c2ccc(Cl)cc2)C1 [Example 492, N-({5-chloro-6-[(trans-4-cyanocyclohexyl)methoxy]pyridin-3-yl}sulfonyl)-4-(4-{[2-(4-chlorophenyl)-4,4-dimethylcyclohex-1-en-1-yl]methyl}piperazin-1-yl)-2-(1H-indazol-4-yloxy)benzamide]	45.1	< 0.01	>4509.6	–	–	–
CC(=O)N1CCOC(CNc2ccc(S(=O)(=O)NC(=O)c3ccc(N4CCN(CC5=C(c6ccc(Cl)cc6)CC(C)(C)CC5)CC4)cc3Oc3cccc4[nH]cnc34)cc2[N+](=O)[O-])C1 (centres unmarked) [Example 457, N-[(4-{[(4-acetylmorpholin-2-yl)methyl]amino}-3-nitrophenyl)sulfonyl]-2-(1H-benzimidazol-4-yloxy)-4-(4-{[2-(4-chlorophenyl)-4,4-dimethylcyclohex-1-en-1-yl]methyl}piperazin-1-yl)benzamide]	331	0.045	7413.6	–	–	–
CC1(C)CCC(CN2CCN(c3ccc(C(=O)NS(=O)(=O)c4ccc(N[C@@H]5CCN(C(CF)CF)C5)c([N+](=O)[O-])c4)c(Oc4cccc5[nH]ncc45)c3)CC2)=C(c2ccc(Cl)cc2)C1 [Example 435, 4-(4-{[2-(4-chlorophenyl)-4,4-dimethylcyclohex-1-en-1-yl]methyl}piperazin-1-yl)-N-{[4-({(3R)-1-[2-fluoro-1-(fluoromethyl)ethyl]pyrrolidin-3-yl}amino)-3-nitrophenyl]sulfonyl}-2-(1H-indazol-4-yloxy)benzamide]	–	–	–	32.9	0.017	–
CC1(C)CCC(CN2CCN(c3ccc(C(=O)NS(=O)(=O)c4cnc(OCCC5CCCO5)c(Cl)c4)c(Oc4cccc5[nH]ncc45)c3)CC2)=C(c2ccc(Cl)cc2)C1 (centres unmarked) [Example 461, 4-(4-{[2-(4-chlorophenyl)-4,4-dimethylcyclohex-1-en-1-yl]methyl}piperazin-1-yl)-N-{[5-chloro-6-(2-tetrahydrofuran-2-ylethoxy)pyridin-3-yl]sulfonyl}-2-(1H-indazol-4-yloxy)benzamide]	3.65	0.093	39.4	–	–	–
CN(C)CC(=O)N1CCO[C@@H](COc2ncc(S(=O)(=O)NC(=O)c3ccc(N4CCN(CC5=C(c6ccc(Cl)cc6)CC(C)(C)CC5)CC4)cc3Oc3cccc4[nH]ncc34)cc2Cl)C1 [Example 426, N-[(5-chloro-6-{[(2R)-4-(N,N-dimethylglycyl)morpholin-2-yl]methoxy}pyridin-3-yl)sulfonyl]-4-(4-{[2-(4-chlorophenyl)-4,4-dimethylcyclohex-1-en-1-yl]methyl}piperazin-1-yl)-2-(1H-indazol-4-yloxy)benzamide]	–	–	–	4.31	0.007	604.2
CO[C@H]1CC[C@H](CNc2ccc(S(=O)(=O)NC(=O)c3ccc(N4CCN(CC5=C(c6ccc(Cl)cc6)CC(C)(C)CC5)CC4)cc3Oc3cccc4[nH]ncc34)cc2[N+](=O)[O-])CC1 [Example 446, Trans-4-(4-{[2-(4-chlorophenyl)-4,4-dimethylcyclohex-1-en-1-yl]methyl}piperazin-1-yl)-2-(1H-indazol-4-yloxy)-N-[(4-{[(4-methoxycyclohexyl)methyl]amino}-3-nitrophenyl)sulfonyl]benzamide]	19.3	0.038	508.4	–	–	–
CC1(C)CCC(CN2CCN(c3ccc(C(=O)NS(=O)(=O)c4cnc(OCC5CCOCC5)c(Cl)c4)c(Oc4cccc5[nH]cnc45)c3)CC2)=C(c2ccc(Cl)cc2)C1 [Example 500, 2-(1H-benzimidazol-4-yloxy)-4-(4-{[2-(4-chlorophenyl)-4,4-dimethylcyclohex-1-en-1-yl]methyl}piperazin-1-yl)-N-{[5-chloro-6-(tetrahydro-2H-pyran-4-ylmethoxy)pyridin-3-yl]sulfonyl}benzamide]	147	< 0.01	>14734.0	–	–	–
CCN1CCCC1CNC(=O)c1cc(S(=O)(=O)NC(=O)c2ccc(N3CCN(Cc4ccccc4-c4ccc(Cl)cc4)CC3)cc2Oc2ccccc2)ccc1OC (centres unmarked) [Example 33, 4-{4-[(4′-chloro-1,1′-biphenyl-2-yl)methyl]piperazin-1-yl}-N-{[3-({[(1-ethylpyrrolidin-2-yl)methyl]amino}carbonyl)-4-methoxyphenyl]sulfonyl}-2-phenoxybenzamide]	–	–	–	333	6.68	–
CC1(C)CCC(CN2CCN(c3ccc(C(=O)NS(=O)(=O)c4ccc(OCC5(F)CCOCC5)c(C(F)(F)F)c4)c(Oc4cccc5[nH]ncc45)c3)CC2)=C(c2ccc(Cl)cc2)C1 [Example 497, 4-(4-{[2-(4-chlorophenyl)-4,4-dimethylcyclohex-1-en-1-yl]methyl}piperazin-1-yl)-N-({4-[(4-fluorotetrahydro-2H-pyran-4-yl)methoxy]-3-(trifluoromethyl)phenyl}sulfonyl)-2-(1H-indazol-4-yloxy)benzamide]	124	0.082	1517.4	–	–	–
CC1(C)CCC(CN2CCN(c3ccc(C(=O)NS(=O)(=O)c4ccc(OCC5CCOCC5)c(Cl)c4)c(Oc4cccc5[nH]cnc45)c3)CC2)=C(c2ccc(Cl)cc2)C1 [Example 516, 2-(1H-benzimidazol-4-yloxy)-4-(4-{[2-(4-chlorophenyl)-4,4-dimethylcyclohex-1-en-1-yl]methyl}piperazin-1-yl)-N-{[3-chloro-4-(tetrahydro-2H-pyran-4-ylmethoxy)phenyl]sulfonyl}benzamide]	4.82	< 0.01	>482.3	–	–	–
